Reference: patent US20210255193A1, “LYSINE REACTIVE PROBES AND USES THEREOF” (The Scripps Research Institute, priority 2017, published 2021)
Blank lines part the entries; values can stand above or below the compound they belong to.

Key:
Assay in all cases: competitive isoTOP-ABPP
Assay type in all cases: binding
[1] = target: T1, RPL10 60S ribosomal protein L10 (Homo sapiens, UniProt P27635); conditions: for R value (DMSO/fragment) for probe 1 labeling: P27635_K121, 231 sol; for R value (DMSO/fragment) for probe 1 labeling / isoTOP-ABPP ratio (R) at liganded lysine P27635_K121: 50 uM, in vitro; for isoTOP-ABPP ratio, lysine P27635_K121: 50 uM_231_sol_in vitro; for isoTOP-ABPP ratio (R) at liganded lysine P27635_K121: sol, 231
T1 construct: isoTOP-ABPP experiments performed in cell lysates (in vitro); endogenous in cells; host or cells: soluble proteome of human cancer cell lines (MDA-MB-231; Ramos and Jurkat also prepared)
Procedure, shortened: (§1)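 Probe: STP-alkyne, 0.1 mM, 1 h RT, after fragment pretreatment of lysate (esters 50 μM; guanidinylators 100 μM). Tags: light = compound, heavy = DMSO, via CuAAC. Replicates averaged if SD <60% of mean; otherwise lowest ratio used when any R <4.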

CUL2 Cullin-2 = target: T2, CUL2 Cullin-2 (Homo sapiens, UniProt Q13617); conditions: for R value (DMSO/fragment) for probe 1 labeling: Q13617_K489, 231 sol; for R value (DMSO/fragment) for probe 1 labeling / isoTOP-ABPP ratio (R) at liganded lysine Q13617_K489: 50 uM, in vitro; for isoTOP-ABPP ratio, lysine Q13617_K489: 50 uM_231_sol_in vitro; for isoTOP-ABPP ratio (R) at liganded lysine Q13617_K489: sol, 231
T2 construct: isoTOP-ABPP experiments performed in cell lysates (in vitro); endogenous in cells; host or cells: soluble proteome of human cancer cell lines (MDA-MB-231, Ramos, Jurkat)
T2 sequence (Q13617 whole entry, the tested form may be a part): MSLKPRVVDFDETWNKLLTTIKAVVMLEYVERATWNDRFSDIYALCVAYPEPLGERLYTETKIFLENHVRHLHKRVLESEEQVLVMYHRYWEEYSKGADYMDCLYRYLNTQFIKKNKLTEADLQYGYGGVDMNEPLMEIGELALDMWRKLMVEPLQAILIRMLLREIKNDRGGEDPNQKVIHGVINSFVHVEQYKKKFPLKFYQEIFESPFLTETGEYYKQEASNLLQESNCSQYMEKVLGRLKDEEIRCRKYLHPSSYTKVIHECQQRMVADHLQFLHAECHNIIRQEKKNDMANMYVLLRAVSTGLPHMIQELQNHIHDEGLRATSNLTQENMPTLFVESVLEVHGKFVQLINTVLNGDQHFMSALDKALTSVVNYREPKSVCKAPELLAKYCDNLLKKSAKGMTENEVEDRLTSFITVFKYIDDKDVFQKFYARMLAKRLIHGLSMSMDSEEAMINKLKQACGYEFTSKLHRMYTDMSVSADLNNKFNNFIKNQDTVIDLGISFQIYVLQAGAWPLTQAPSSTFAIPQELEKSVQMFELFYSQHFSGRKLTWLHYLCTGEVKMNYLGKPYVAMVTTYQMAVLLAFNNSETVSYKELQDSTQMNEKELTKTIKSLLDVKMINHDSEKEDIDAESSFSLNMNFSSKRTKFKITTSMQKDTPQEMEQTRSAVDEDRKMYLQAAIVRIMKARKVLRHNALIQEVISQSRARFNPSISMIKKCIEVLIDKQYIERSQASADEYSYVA
Procedure, shortened: as §1

[2] = target: T3, FECH Ferrochelatase, mitochondrial (Homo sapiens, UniProt P22830); conditions: for R value (DMSO/fragment) for probe 1 labeling: P22830_K304, 231 sol; for R value (DMSO/fragment) for probe 1 labeling / isoTOP-ABPP ratio (R) at liganded lysine P22830_K304: 50 uM, in vitro; for isoTOP-ABPP ratio, lysine P22830_K304: 50 uM_231_sol_in vitro; for isoTOP-ABPP ratio (R) at liganded lysine P22830_K304: sol, 231
T3 construct: isoTOP-ABPP experiments performed in cell lysates (in vitro); endogenous in cells; host or cells: soluble proteome of human cancer cell lines (MDA-MB-231; Ramos and Jurkat also prepared)
T3 sequence (P22830 55-423): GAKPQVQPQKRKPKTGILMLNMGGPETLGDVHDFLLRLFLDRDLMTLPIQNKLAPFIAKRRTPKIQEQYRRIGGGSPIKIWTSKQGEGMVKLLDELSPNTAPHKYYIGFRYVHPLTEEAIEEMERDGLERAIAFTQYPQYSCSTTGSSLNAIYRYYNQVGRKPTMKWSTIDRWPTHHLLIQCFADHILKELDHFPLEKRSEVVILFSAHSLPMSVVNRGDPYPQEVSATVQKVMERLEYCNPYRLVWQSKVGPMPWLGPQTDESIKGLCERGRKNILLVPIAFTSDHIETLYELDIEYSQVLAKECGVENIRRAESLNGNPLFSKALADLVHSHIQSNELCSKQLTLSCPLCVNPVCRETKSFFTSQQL
Procedure, shortened: as §1

[3] = target: T4, KPNA2 Importin subunit alpha-2 (Homo sapiens, UniProt P52292); conditions: for R value (DMSO/fragment) for probe 1 labeling: P52292_K459, 231 sol; for R value (DMSO/fragment) for probe 1 labeling / isoTOP-ABPP ratio (R) at liganded lysine P52292_K459: 50 uM, in vitro; for isoTOP-ABPP ratio, lysine P52292_K459: 50 uM_231_sol_in vitro; for isoTOP-ABPP ratio (R) at liganded lysine P52292_K459: sol, 231
T4 construct: isoTOP-ABPP experiments performed in cell lysates (in vitro); endogenous in cells; host or cells: soluble proteome of human cancer cell lines (MDA-MB-231, Ramos, Jurkat)
Procedure, shortened: as §1

[4] = target: T5, ABHD10 Abhydrolase domain-containing protein 10, mitochondrial (Homo sapiens, UniProt Q9NUJ1); conditions: for R value (DMSO/fragment) for probe 1 labeling: Q9NUJ1_K185, 231 sol; for R value (DMSO/fragment) for probe 1 labeling / isoTOP-ABPP ratio (R) at liganded lysine Q9NUJ1_K185: 50 uM, in vitro; for isoTOP-ABPP ratio, lysine Q9NUJ1_K185: 50 uM_231_sol_in vitro; for isoTOP-ABPP ratio (R) at liganded lysine Q9NUJ1_K185: sol, 231
T5 construct: endogenous in cells; host or cells: MDA-MB-231 lysate
T5 sequence (Q9NUJ1 53-306): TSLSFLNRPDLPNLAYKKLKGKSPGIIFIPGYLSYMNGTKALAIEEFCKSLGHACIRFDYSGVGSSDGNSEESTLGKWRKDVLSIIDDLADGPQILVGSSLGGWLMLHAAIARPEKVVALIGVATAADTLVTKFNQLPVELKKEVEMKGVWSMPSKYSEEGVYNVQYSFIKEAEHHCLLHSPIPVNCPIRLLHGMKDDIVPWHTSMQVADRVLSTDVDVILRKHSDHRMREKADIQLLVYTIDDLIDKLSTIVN
Method: In vitro covalent fragment treatment for isoTOP-ABPP. All compounds were made up as solutions in DMSO (100×) and were used at a final concentration of 50 μM for activated esters and 100 μM for guanidinylating agents. For each profiling sample, 0.5 ml of lysate was treated with 5 μl of the 100× compound stock solution or 5 μl of DMSO. Samples were treated with activated esters for
STP-alkyne labeling and click chemistry. For concentration-dependent reactivity measurements by isoTOP-ABPP, 0.5 ml proteome aliquots were treated at ambient temperature with 1 mM STP-alkyne 1 (5 μl of 100 mM stock in DMSO) and 0.1 mM STP alkyne 1 (5 μl of 10 mM stock in DMSO), respectively. For competitive isoTOP-ABPP, after in vitro fragment treatment (detailed above), the samples were labeled for 1 h at ambient temperature with 0.1 mM STP-alkyne 1 (5 μl of 10 mM stock in DMSO). Samples were conjugated by copper-mediated azide-alkyne cycloaddition (CuAAC) to either the light (1 mM STP-alkyne or fragment treated) or heavy (0.1 mM STP-alkyne or DMSO treated) TEV tags (10 μl of 5 mM stocks in DMSO, final concentration=100 μM) using tris(2-carboxyethyl)phosphine hydrochloride
R value calculation and processing. The ratios of light and heavy MS1 peaks for each unique peptide were quantified with a CIMAGE software using default parameters (3 MS1 acquisitions per peak and signal to noise threshold set to 2.5). For reactivity measurements by isoTOP-ABPP, the R value was calculated from the ratio of MS1 peak areas, comparing the 1 mM STP alkyne sample (light TEV tag) with the 0.1 mM STP alkyne sample (heavy TEV tag). For competitive isoTOP-ABPP, the R value was calculated from the ratio of MS1 peak areas, comparing the DMSO treated sample (heavy TEV tag) with the compound treated sample (light TEV tag). […] Ratios for unique peptide entries are calculated for each experiment; overlapping peptides with the same modified lysine (for example, different charge states, MudPIT chromatographic steps or tryptic termini) are grouped together and the median ratio is reported as the final ratio (R). The peptide ratios reported by CIMAGE were further filtered to ensure the removal or correction of low-quality ratios in each individual data set. The quality filters applied were the following: removal of half tryptic peptides; for ratios with high standard deviations from the median (90% of the median or above) the lowest ratio was taken instead of the median; removal of peptides with R=20 and only a single MS2 event triggered during the elution of the parent ion; manual annotation of all the peptides with ratios of 20, removing any peptides with low quality elution profiles that remained after the previous curation steps (only done for competitive isoTOP-ABPP).
Cross-data processing for fragment screening. For compound treated samples, biological replicates of the same condition were averaged, if the standard deviation was below 60% of the mean; otherwise, for lysines with at least one R value <4 for a particular compound, the lowest value of the ratio set was taken. For lysines, where all R values for a particular compound were ≥4, the average was reported. For peptides containing several possible modified lysines, the lysine with the highest number of quantification events was used for analysis and the remaining, redundant peptides were reported as alternative modification sites. Peptides included in the aggregate dataset (those used for further bioinformatics and statistical analyses) were required to have been quantified in 2 experiments for competitive isoTOP-ABPP. Lysines were categorized as liganded, if they had at least one ratio R≥4 (hit fragments). For liganded lysines with R=20 for all liganding events, lysines were required to have been quantified with R=20 in two separate experiments and were further required to have been quantified with R<20 in one additional experiment.

R value (DMSO/fragment) for probe 1 labeling [1]: 0.9 | R value (DMSO/fragment) for probe 1 labeling (CUL2 Cullin-2): 1.0 | R value (DMSO/fragment) for probe 1 labeling [2]: 2.0 | R value (DMSO/fragment) for probe 1 labeling [3]: 6.2 | R value (DMSO/fragment) for probe 1 labeling [4]: 1.5
Compound: Cn1cc(CC(=O)Oc2c(F)c(F)c(F)c(F)c2F)c2ccccc21 [fragment 22, Pentafluorophenyl 2-(1-methyl-1H-indol-3-yl)acetate]

R value (DMSO/fragment) for probe 1 labeling [1]: 0.7 | R value (DMSO/fragment) for probe 1 labeling (CUL2 Cullin-2): 0.8 | R value (DMSO/fragment) for probe 1 labeling [2]: 1.7 | R value (DMSO/fragment) for probe 1 labeling [3]: 5.5 | R value (DMSO/fragment) for probe 1 labeling [4]: 1.1
Compound: O=C(Oc1c(F)c(F)c(F)c(F)c1F)C(c1ccccc1)c1ccccc1 [fragment 20, Pentafluorophenyl 2,2-diphenylacetate]

Compound: O=C(CCc1ccc2c(c1)OCO2)Oc1ccc([N+](=O)[O-])cc1[N+](=O)[O-] [fragment 45, 2,4-Dinitrophenyl 3-(benzo[d][1,3]dioxol-5-yl)propanoate]
isoTOP-ABPP ratio, lysine P27635_K121 [1]: 1.8 | isoTOP-ABPP ratio, lysine Q13617_K489 (CUL2 Cullin-2): 1.2 | isoTOP-ABPP ratio, lysine P22830_K304 [2]: 1.4 | isoTOP-ABPP ratio, lysine P52292_K459 [3]: 1.7 | isoTOP-ABPP ratio, lysine Q9NUJ1_K185 [4]: 1.2

Compound: O=C(ON1C(=O)CCC1=O)c1cc(C(F)(F)F)cc(C(F)(F)F)c1 [fragment 46, 3,5-Bis(trifluoromethyl)benzoic acid NHS ester]
isoTOP-ABPP ratio, lysine P27635_K121 [1]: 0.8 | isoTOP-ABPP ratio, lysine Q13617_K489 (CUL2 Cullin-2): 1.0 | isoTOP-ABPP ratio, lysine P22830_K304 [2]: 0.9 | isoTOP-ABPP ratio, lysine P52292_K459 [3]: 1.4 | isoTOP-ABPP ratio, lysine Q9NUJ1_K185 [4]: 1.2

Compound: O=C(Oc1ccc([N+](=O)[O-])cc1[N+](=O)[O-])c1ccc(Oc2ccccc2)cc1 [fragment 39, 2,4-Dinitrophenyl 4-phenoxybenzoate]
isoTOP-ABPP ratio (R) at liganded lysine P27635_K121 [1]: 1.0 | isoTOP-ABPP ratio (R) at liganded lysine Q13617_K489 (CUL2 Cullin-2): 20.0 | isoTOP-ABPP ratio (R) at liganded lysine P22830_K304 [2]: 1.3 | isoTOP-ABPP ratio (R) at liganded lysine P52292_K459 [3]: 1.0 | isoTOP-ABPP ratio (R) at liganded lysine Q9NUJ1_K185 [4]: 1.0

Compound: CC(=O)Oc1ccc([N+](=O)[O-])cc1[N+](=O)[O-] [fragment 43, 2,4-Dinitrophenyl acetate]
isoTOP-ABPP ratio (R) at liganded lysine P27635_K121 [1]: 20.0 | isoTOP-ABPP ratio (R) at liganded lysine Q13617_K489 (CUL2 Cullin-2): 1.2 | isoTOP-ABPP ratio (R) at liganded lysine P22830_K304 [2]: 1.3 | isoTOP-ABPP ratio (R) at liganded lysine P52292_K459 [3]: 2.6 | isoTOP-ABPP ratio (R) at liganded lysine Q9NUJ1_K185 [4]: 1.3

R value (DMSO/fragment) for probe 1 labeling [1]: 0.8 | R value (DMSO/fragment) for probe 1 labeling (CUL2 Cullin-2): 0.9 | R value (DMSO/fragment) for probe 1 labeling [2]: 1.0 | R value (DMSO/fragment) for probe 1 labeling [3]: 1.0 | R value (DMSO/fragment) for probe 1 labeling [4]: 4.7
Compound: O=C(Oc1c(F)c(F)c(F)c(F)c1F)c1cc(C(F)(F)F)cc(C(F)(F)F)c1 [fragment 21, Pentafluorophenyl 3,5-bis(trifluoromethyl)benzoate]
